In patent publication US11518758B2, “Heteroarylaminopyrimidine amide autophagy inhibitors and methods of use thereof” (Deciphera Pharmaceuticals, LLC, priority 2019, dated 2022):

Columns and labels:
ULK1 kinase = biological target: T1, ULK1 kinase (Homo sapiens, UniProt O75385); experiment: Biochemical assay for ULK1.2 (coupled pyruvate kinase/lactate dehydrogenase assay); conditions: 19 nM ULK1 (Eurofins), myelin basic protein, 1 mM ATP
T1 construct: purchased Eurofins 14-959
T1 sequence (O75385 with tags, fused parts or gaps): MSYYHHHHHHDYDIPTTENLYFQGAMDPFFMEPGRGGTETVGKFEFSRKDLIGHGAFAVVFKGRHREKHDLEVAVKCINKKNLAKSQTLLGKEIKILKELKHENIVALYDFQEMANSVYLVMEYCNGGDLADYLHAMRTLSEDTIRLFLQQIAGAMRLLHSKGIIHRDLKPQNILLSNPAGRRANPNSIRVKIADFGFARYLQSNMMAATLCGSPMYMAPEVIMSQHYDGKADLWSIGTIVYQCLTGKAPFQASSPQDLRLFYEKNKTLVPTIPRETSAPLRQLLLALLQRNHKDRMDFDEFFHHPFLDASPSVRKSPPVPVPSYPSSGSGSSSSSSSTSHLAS
Protocol: Example 174. Biochemical Assay for ULK1.2
(§1) Activity of ULK1 kinase was determined spectroscopically using a coupled pyruvate kinase/lactate dehydrogenase assay that continuously monitors the ATP hydrolysis-dependent oxidation of NADH (e.g., Schindler et al. Science (2000) 289: 1938-1942). Assays were conducted in 384-well plates (100 uL final volume) using 19 nM ULK1 (Eurofins CAT #14-959), 0.25 mg/mL myelin basic protein, 1.5 units pyruvate kinase, 2.1 units lactate dehydrogenase, 1 mM phosphoenol pyruvate, 0.28 mM NADH and 1 mM ATP in assay buffer (100 mM Tris, pH 7.5, 15 mM MgCl2, 0.5 mM DTT, 0.1% octyl-glucoside, 0.002% (w/v) BSA, and 0.002% Triton X-100). Inhibition of ULK1 was measured by adding serial diluted test compound (final assay concentration of 1% DMSO). A decrease in absorption at 340 nm was monitored continuously for 6 hours at 30° C. on a multi-mode microplate reader (BioTek). The reaction rate was calculated using the 2-3 h time frame. The reaction rate at each concentration of compound was converted to percent inhibition using controls (i.e. reaction with no test compound and reaction with a known inhibitor) and IC50 values were calculated by fitting a four-parameter sigmoidal curve to the data using Prism (GraphPad software).

ULK2 kinase = biological target: T2, ULK2 kinase (Homo sapiens, UniProt Q8IYT8); experiment: Biochemical assay for ULK2 (coupled pyruvate kinase/lactate dehydrogenase assay); conditions: 9.7 nM ULK2 (Eurofins), myelin basic protein, 1 mM ATP; read-out: ULK2.2
T2 construct: purchased Eurofins 14-772
T2 sequence (Q8IYT8 with tags, fused parts or gaps): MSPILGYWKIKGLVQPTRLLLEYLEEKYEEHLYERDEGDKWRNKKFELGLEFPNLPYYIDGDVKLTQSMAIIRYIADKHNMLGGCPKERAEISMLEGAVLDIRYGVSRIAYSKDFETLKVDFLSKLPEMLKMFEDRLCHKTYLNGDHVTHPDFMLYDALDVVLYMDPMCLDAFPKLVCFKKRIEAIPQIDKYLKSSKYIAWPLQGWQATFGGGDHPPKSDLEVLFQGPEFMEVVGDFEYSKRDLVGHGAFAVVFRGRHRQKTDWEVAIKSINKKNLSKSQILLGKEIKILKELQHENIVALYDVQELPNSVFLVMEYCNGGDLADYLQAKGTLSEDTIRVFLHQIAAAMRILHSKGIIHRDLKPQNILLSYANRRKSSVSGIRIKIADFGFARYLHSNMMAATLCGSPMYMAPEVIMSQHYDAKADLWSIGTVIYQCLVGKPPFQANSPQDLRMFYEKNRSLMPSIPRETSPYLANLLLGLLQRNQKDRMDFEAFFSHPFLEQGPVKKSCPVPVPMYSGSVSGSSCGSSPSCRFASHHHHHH
Protocol: Example 176. Biochemical Assay for ULK2
as §1, with “of ULK2” for “of ULK1”, “using 9.7” for “using 19”, “nM ULK2” for “nM ULK1”, “CAT #14-772),” for “CAT #14-959),”

LRRK2 kinase = biological target: T3, LRRK2 kinase (Homo sapiens, UniProt Q5S007); experiment: Biochemical assay for LRRK2 (coupled pyruvate kinase/lactate dehydrogenase assay); conditions: 26.4 nM LRRK2 (residues 970-2528), 0.1 mM peptide substrate, 1 mM ATP
T3 construct: purchased Thermo Fisher
T3 sequence (Q5S007 with tags, fused parts or gaps): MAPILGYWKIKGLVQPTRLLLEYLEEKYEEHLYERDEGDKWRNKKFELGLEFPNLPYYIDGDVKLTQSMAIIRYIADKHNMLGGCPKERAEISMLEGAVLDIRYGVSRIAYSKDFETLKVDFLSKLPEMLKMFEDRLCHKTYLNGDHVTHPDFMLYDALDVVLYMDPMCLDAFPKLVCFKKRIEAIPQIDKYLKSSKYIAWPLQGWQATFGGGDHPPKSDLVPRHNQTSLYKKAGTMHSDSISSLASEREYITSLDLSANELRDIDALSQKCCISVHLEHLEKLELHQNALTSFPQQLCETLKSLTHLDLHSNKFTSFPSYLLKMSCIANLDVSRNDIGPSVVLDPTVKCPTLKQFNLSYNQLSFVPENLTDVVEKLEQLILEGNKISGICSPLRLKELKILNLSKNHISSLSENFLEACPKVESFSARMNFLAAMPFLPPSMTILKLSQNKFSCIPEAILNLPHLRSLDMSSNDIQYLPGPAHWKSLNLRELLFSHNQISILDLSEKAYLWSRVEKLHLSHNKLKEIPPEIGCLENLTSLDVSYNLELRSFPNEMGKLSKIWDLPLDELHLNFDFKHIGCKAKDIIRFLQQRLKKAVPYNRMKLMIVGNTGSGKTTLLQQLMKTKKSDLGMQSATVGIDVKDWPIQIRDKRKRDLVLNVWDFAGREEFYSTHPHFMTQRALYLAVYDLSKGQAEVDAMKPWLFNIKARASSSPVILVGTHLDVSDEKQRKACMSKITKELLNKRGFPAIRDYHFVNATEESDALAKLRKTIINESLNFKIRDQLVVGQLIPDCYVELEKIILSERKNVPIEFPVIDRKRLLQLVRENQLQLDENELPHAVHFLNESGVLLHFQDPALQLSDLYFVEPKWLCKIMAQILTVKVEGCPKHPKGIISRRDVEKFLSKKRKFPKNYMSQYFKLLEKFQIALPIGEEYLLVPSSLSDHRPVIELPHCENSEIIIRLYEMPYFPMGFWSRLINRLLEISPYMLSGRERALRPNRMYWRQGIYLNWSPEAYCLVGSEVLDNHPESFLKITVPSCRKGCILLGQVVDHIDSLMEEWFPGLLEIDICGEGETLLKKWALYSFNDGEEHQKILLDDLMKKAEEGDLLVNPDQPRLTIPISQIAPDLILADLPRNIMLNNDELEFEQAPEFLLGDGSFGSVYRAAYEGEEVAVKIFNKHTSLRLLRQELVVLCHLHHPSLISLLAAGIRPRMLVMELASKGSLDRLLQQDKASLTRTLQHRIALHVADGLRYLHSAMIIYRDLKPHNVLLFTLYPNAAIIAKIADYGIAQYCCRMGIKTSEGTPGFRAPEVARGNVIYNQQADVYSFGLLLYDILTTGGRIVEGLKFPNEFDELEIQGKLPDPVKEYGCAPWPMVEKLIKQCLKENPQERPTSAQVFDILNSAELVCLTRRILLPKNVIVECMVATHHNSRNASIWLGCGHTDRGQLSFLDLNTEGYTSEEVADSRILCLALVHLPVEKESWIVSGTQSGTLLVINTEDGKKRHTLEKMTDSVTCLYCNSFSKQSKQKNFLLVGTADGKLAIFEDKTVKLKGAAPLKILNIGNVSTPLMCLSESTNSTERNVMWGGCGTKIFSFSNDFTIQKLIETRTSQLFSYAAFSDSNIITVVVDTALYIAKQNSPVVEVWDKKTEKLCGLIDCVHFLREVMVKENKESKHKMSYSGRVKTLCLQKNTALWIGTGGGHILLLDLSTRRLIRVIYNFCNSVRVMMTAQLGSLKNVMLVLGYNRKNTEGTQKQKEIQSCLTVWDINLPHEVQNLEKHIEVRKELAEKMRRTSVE
Protocol: Example 182. Biochemical Assay for LRRK2 (SEQ. ID NO. 4)
Activity of LRRK2 kinase was determined spectroscopically using a coupled pyruvate kinase/lactate dehydrogenase assay that continuously monitors the ATP hydrolysis-dependent oxidation of NADH (e.g., Schindler et al. Science (2000) 289: 1938-1942). Assays were conducted in 384-well plates (100 uL final volume) using 26.4 nM LRRK2 (Thermo Fisher), 0.1 mM peptide substrate (RLGRDKYKTLRQIRQ (SEQ ID NO: 6)), 1.5 units pyruvate kinase, 2.1 units lactate dehydrogenase, 1 mM phosphoenol pyruvate, 0.28 mM NADH and 1 mM ATP in assay buffer (100 mM Tris, pH 7.5, 15 mM MgCl2, 0.5 mM DTT, 0.004% (w/v) BSA, and 0.004% Triton X-100). Inhibition of LRRK2 was measured by adding serial diluted test compound (final assay concentration of 1% DMSO). A decrease in absorption at 340 nm was monitored continuously for 6 hours at 30° C. on a multi-mode microplate reader (BioTek). The reaction rate was calculated using the 2-3 h time frame. The reaction rate at each concentration of compound was converted to percent inhibition using controls (i.e. reaction with no test compound and reaction with a known inhibitor) and IC50 values were calculated using software routines in Prism (GraphPad software).

[1] = test system: phospho-Serine 318 ATG13 (pATG13), ULK kinase substrate, in A549 (KRAS mutant) cells; experiment: pATG13 levels of mutant KRas A549 cells after treatment with ULK inhibitors in combination with trametinib (ELISA); assay type: cell-based, human; conditions: with 250 nM trametinib
Protocol: Example 177. Cellular Inhibition of ULK Kinase Substrate ATG13 Protein pATG13 Levels of Mutant KRas A549 Cells after Treatment with ULK Inhibitors in Combination with Trametinib
A549 (KRAS mutant) human lung cancer cells (6,000 cells/well) were added to a 384-well tissue-culture treated plate in 50 μL of pre-warmed DMEM medium supplemented with 10% characterized fetal bovine serum (Invitrogen, Carlsbad, Calif.), 100 units/mL penicillin G, and 100 μg/mL streptomycin and allowed to grow overnight at 37° C., 5% CO2, and 95% humidity. The following day, 10 μL of media containing trametinib or DMSO as a control was added to wells. The final concentration of trametinib in wells was 250 nM. A dose response of a test compound (0.6 μL per well) was added. DMSO (0.6 μL) was added to control wells. The plate was briefly shaken to mix wells and then incubated at 37° C. overnight. The next day, the media was aspirated and cells were washed with Dulbecco's Phosphate Buffered Saline (Gibco). Cells were lysed using MPER lysis buffer (Pierce, Rockford, Ill.) containing Halt Phosphatase and Protease Inhibitors (Pierce, Rockford, Ill.) and Phosphatase inhibitor cocktail 2 (Sigma, St. Louis, Mo.) at 4° C. for 10 minutes with shaking.
Cellular levels of phospho-Serine 318 ATG13 (pATG13) were measured via an ELISA method. Total ATG13 Antibody (Cell Signaling Cat #13273) was used to coat the wells. The plate was incubated at 4° C. overnight and washed with ELISA wash buffer (Biolegend Cat #421601). The wells were then blocked with assay diluent (Biolegend Cat #421203) for 1 hour at room temperature. Plate wells were washed with ELISA wash buffer. Cell lysate was added to wells and incubated at room temperature for 2 hours. Plate wells were washed with ELISA wash buffer. Biotinylated pS318-ATG13 antibody (Rockland Immunochemicals Cat #600-401-C49) was diluted in assay diluent and added to each well and incubated at room temperature for 1 hour. Plate wells were washed with ELISA wash buffer. Streptavidin linked to horseradish peroxidase (Thermo Fisher Cat #21140) was diluted in assay diluent and added to each well and incubated at room temperature for 1 hour. Plate wells were washed with ELISA wash buffer. High sensitivity TMB substrate (Biolegend Cat #421101) was added to each well and incubated at room temperature for 20 minutes. The reaction was stopped with 2N Sulfuric Acid. The plate was analyzed at on a plate reader measuring absorbance at 450 nm and 540 nm (background). Signal was calculated by first subtracting the background absorbance at 540 nm from the absorbance at 450 nm for each well. Next, the background corrected absorbance at 450 nm from blank wells was subtracted from test wells. Data was compared to control wells to determine % ATG13 phosphorylation. GraphPad Prism was used to calculate IC50 values.

Compound	IC50 (ULK1 kinase) [nM]	IC50 (ULK2 kinase) [nM]	IC50 (LRRK2 kinase) [nM]	IC50 [1] [nM]
CN1CCC(n2cc(Nc3ncc(C4CC4)c(NCCCN4CCCCC4=O)n3)cn2)CC1 [Example 1]	25 to 100	> 500	> 600	
CN1CCC(n2cc(Nc3ncc(Cl)c(NCCCN4CCCCC4=O)n3)cn2)CC1 [Example 2]	1 to 25	25 to 100		
O=C1CCCCN1CCCNc1nc(Nc2cnn(C3CCNCC3)c2)ncc1Cl [Example 4]	1 to 25	25 to 100		> 600
CCN1CC[C@@H](n2cc(Nc3ncc(C(F)(F)F)c(NCCCN4CCCCC4=O)n3)c(C)n2)C1 [Example 25]	1 to 25	25 to 100		10 to 100
Cc1nn(C2CCNCC2)cc1Nc1ncc(Cl)c(NCCCN2CCCCC2=O)n1 [Example 27]	25 to 100	100 to 500		> 600
CCc1nn(C2CCNCC2)cc1Nc1ncc(Br)c(NCCCN2CCCCC2=O)n1 [Example 41]	25 to 100	100 to 500		
Cc1nn(C2CCN(C)CC2)cc1Nc1ncc(Br)c(NCCCN2CCCCC2=O)n1 [Example 51]	1 to 25	25 to 100		> 600
O=C1CCCCCN1CCCNc1nc(Nc2cnn(C3CCNCC3)c2)ncc1C(F)(F)F [Example 77]	1 to 25	1 to 25		100 to 300
CN1CCC(n2cc(Nc3ncc(C(F)(F)F)c(NCCCN4CCCCCC4=O)n3)cn2)CC1 [Example 78]	1 to 25	1 to 25		10 to 100
CN1CCC(n2cc(Nc3ncc(Cl)c(NCCCN4CCCCCC4=O)n3)cn2)CC1 [Example 81]	1 to 25	1 to 25		10 to 100
Cc1nn(C2CCNCC2)cc1Nc1ncc(C(F)(F)F)c(NCCCN2CCCCCC2=O)n1 [Example 83, 1-(3-((2-((3-methyl-1-(piperidin-4-yl)-1H-pyrazol-4-yl)amino)-5-(trifluoromethyl)pyrimidin-4-yl)amino)propyl)azepan-2-one]	1 to 25	1 to 25		100 to 300
Cc1nn(C2CCNCC2)cc1Nc1ncc(Cl)c(NCCCN2CCCCCC2=O)n1 [Example 86]	25 to 100	100 to 500		> 600
Cc1nn(C2CCN(C3COC3)CC2)cc1Nc1ncc(C(F)(F)F)c(NCCCN2CCCCCC2=O)n1 [Example 91]	1 to 25	100 to 500		300 to 600
Cc1nn(C2CCNCC2)cc1Nc1ncc(C(F)(F)F)c(NCCCN2CCCC2=O)n1 [Example 103]	25 to 100	25 to 100		> 600
Cc1nn(C2CCN(C)CC2)cc1Nc1ncc(Cl)c(NCCCN2CCOCCC2=O)n1 [Example 132]	100 to 500		> 600	
Cc1nn(CCCN2CCOCC2)cc1Nc1ncc(Cl)c(NCCCN2CCOCCC2=O)n1 [Example 135]	> 500		> 600	
CN1CCC(n2cc(Nc3ncc(C4CC4)c(NCCCN4CCN(C)C4=O)n3)cn2)CC1 [Example 147]	100 to 500	> 500	> 600	
CC1CCC(=O)N1CCCNc1nc(Nc2cnn(C3CCN(C4CC4)CC3)c2)ncc1Cl (centres unmarked) [Example 150]	100 to 500		100 to 300	
CC1(C)CCN(CCCNc2nc(Nc3cnn(C4CCN(C5CC5)CC4)c3)ncc2Br)C1=O [Example 153]	100 to 500		300 to 600	
C[C@@H](CCNc1nc(Nc2cnn(C3CCN(C4CC4)CC3)c2)ncc1Cl)N1CCCC1=O [Example 156]	> 500		300 to 600	
C[C@@H](CCNc1nc(Nc2cnn(C3CCN(C)CC3)c2)ncc1Cl)N1CCCC1=O [Example 157]	> 500		> 600	
CC(C)CN1CC(n2cc(Nc3ncc(Cl)c(NCCCN4CCCC4=O)n3)cn2)C1 [Example 159]	> 500		> 600	
Cc1nn([C@@H]2CCNC2)cc1Nc1ncc(Br)c(NCCCN2CCCC2=O)n1 [Example 164]	100 to 500		300 to 600	
CC(C)CN1CC(n2cc(Nc3ncc(Br)c(NCCCN4CCCC4=O)n3)cn2)C1 [Example 165]	100 to 500		300 to 600	
CN1CCC(n2cc(Nc3ncc(C(F)(F)F)c(NCCCN4CCCC4=O)n3)cn2)CC1 [Example 166]	1 to 25	25 to 100		100 to 300
CCN1CC[C@H](n2cc(Nc3ncc(C(F)(F)F)c(NCCCN4CCCC4=O)n3)c(C)n2)C1 [Example 168]	100 to 500		> 600	
CC(C)CN1CC(n2cc(Nc3ncc(C(F)(F)F)c(NCCCN4CCCC4=O)n3)cn2)C1 [Example 170]	100 to 500		300 to 600	
